In patent US20250034216A1, “STEREOSELECTIVE COVALENT LIGANDS FOR ONCOGENIC AND IMMUNOLOGICAL PROTEINS” (The Scripps Research Institute, priority 2021, published 2025):

What was measured:
Assay in all cases: IA-DTB cysteine engagement
Format in all cases: binding
Settings in all cases: 22Rv1 cells, 20 μM probe, 1 h, relative to DMSO
[1] = molecular target: T1, ABCB8_C461 (Homo sapiens, UniProt Q9NUT2)
T1 construct: endogenous in cells; host or cells: 22Rv1
T1 sequence (Q9NUT2 26-735): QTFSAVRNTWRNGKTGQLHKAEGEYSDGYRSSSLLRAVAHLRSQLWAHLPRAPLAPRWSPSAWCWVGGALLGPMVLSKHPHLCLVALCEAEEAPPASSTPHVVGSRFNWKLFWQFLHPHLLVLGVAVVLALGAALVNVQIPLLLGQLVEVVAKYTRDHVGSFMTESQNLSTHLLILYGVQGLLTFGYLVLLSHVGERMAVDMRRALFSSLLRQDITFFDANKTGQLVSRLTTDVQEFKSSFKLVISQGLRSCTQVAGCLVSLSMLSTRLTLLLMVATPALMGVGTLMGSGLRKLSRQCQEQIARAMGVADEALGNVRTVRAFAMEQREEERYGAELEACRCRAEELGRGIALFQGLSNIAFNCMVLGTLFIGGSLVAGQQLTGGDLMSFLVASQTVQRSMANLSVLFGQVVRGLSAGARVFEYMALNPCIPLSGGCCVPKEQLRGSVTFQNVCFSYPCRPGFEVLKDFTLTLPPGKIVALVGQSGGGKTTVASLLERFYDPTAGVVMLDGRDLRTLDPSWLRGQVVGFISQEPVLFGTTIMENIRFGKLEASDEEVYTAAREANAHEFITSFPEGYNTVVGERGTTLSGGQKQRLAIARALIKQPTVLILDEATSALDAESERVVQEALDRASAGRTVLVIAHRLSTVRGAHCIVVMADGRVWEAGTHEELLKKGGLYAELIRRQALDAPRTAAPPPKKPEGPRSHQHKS
In short: (§1)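 First, cells are exposed to electrophilic probes in situ. Next, lysates are labeled with IA-DTB (1 h, ambient temperature), reduced, alkylated and trypsin-digested. Then, IA-DTB peptides are enriched on streptavidin, TMT-labeled and analyzed, with ratios taken against DMSO channels.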

[2] = molecular target: T2, CRYBG1_C1574 (Homo sapiens, UniProt Q9Y4K1)
T2 construct: endogenous in cells; host or cells: 22Rv1
In short: as §1

[3] = molecular target: T3, FXYD3_C63 (Homo sapiens, UniProt Q14802)
T3 construct: endogenous in cells; host or cells: 22Rv1
T3 sequence (Q14802 21-87): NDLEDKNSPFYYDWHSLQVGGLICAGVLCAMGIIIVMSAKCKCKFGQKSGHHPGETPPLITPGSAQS
In short: as §1

[4] = molecular target: T4, PRAF2_C34 (Homo sapiens, UniProt O60831)
T4 construct: endogenous in cells; host or cells: 22Rv1
T4 sequence (O60831 1-178): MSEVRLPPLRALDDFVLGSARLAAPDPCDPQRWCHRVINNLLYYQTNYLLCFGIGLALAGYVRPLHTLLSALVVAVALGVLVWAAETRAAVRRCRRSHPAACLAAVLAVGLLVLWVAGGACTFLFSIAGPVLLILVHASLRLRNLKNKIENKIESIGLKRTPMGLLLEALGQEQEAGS
In short: as §1

[5] = molecular target: T5, TMEM50A_C13 (Homo sapiens, UniProt O95807)
T5 construct: endogenous in cells; host or cells: 22Rv1
In short: as §1

T2 sequence (Q9Y4K1 whole entry): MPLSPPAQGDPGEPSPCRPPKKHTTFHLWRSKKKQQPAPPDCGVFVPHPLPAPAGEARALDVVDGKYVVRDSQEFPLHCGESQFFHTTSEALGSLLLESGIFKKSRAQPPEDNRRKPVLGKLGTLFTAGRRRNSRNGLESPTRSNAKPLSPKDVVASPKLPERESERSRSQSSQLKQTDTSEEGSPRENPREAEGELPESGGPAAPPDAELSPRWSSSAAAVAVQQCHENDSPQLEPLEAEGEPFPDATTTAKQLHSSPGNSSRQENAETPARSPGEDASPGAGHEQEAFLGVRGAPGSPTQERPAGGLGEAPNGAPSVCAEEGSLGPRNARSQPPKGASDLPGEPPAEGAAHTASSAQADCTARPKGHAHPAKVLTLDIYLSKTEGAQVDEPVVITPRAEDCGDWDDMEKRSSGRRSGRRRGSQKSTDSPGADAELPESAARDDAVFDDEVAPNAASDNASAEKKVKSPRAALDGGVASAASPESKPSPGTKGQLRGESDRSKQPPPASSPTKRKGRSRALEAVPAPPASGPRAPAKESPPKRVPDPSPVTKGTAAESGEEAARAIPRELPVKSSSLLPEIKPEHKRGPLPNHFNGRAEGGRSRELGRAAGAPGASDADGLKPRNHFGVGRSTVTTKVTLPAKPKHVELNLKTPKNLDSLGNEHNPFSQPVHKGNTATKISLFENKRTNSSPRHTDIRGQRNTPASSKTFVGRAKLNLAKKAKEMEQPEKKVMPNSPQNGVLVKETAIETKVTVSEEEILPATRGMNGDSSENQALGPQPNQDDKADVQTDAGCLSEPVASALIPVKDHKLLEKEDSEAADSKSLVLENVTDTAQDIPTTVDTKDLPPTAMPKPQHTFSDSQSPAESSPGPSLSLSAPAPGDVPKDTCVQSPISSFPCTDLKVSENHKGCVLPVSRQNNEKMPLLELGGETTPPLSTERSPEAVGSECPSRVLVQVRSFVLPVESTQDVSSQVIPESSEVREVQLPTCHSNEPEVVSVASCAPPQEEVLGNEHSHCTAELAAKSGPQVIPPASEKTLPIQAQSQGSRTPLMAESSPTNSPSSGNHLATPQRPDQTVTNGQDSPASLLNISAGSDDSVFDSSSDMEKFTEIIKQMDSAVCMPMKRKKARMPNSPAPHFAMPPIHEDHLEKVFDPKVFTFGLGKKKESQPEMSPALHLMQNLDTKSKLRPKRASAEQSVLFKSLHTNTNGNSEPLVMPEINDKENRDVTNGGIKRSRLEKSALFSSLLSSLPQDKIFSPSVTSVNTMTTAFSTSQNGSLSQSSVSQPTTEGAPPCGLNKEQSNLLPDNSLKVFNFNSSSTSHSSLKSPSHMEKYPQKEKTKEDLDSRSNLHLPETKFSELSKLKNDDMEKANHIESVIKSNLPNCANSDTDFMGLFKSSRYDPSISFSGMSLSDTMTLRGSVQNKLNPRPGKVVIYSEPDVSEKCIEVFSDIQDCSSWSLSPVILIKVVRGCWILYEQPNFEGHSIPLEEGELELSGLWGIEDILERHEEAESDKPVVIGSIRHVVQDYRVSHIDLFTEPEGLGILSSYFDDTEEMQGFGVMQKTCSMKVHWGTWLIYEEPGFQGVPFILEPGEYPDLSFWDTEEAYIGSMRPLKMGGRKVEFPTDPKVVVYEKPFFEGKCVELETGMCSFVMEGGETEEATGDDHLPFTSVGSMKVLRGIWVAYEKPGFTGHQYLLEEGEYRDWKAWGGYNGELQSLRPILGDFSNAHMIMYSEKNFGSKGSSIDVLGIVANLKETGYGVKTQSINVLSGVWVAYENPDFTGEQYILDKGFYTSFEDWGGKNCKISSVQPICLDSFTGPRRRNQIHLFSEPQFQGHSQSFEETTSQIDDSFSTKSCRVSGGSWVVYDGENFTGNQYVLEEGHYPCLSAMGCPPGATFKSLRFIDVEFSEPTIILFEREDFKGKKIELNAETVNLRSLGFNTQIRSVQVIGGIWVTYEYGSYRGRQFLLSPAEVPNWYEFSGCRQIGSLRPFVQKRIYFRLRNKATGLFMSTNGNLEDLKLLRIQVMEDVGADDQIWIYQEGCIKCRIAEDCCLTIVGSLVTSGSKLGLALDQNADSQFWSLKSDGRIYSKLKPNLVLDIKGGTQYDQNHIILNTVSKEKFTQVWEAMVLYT
T5 sequence (O95807 whole entry): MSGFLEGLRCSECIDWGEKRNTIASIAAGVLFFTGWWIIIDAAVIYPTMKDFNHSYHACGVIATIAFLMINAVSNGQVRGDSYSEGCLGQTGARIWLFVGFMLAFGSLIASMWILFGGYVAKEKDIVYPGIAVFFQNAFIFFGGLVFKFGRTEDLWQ

| % engagement ABCB8_C461 [1] [%] | % engagement CRYBG1_C1574 [2] [%] | % engagement FXYD3_C63 [3] [%] | % engagement PRAF2_C34 [4] [%] | % engagement TMEM50A_C13 [5] [%] | Structure (SMILES) |
| --- | --- | --- | --- | --- | --- |
| −3 | 23 | 48.5 | 76 | 63.5 | C=CC(=O)N1C[C@@H](c2ccc(Br)cc2)[C@H]1C(=O)Nc1cccc2cccnc12 [MY-1A, (2S,3R)-1-acryloyl-3-(4-bromophenyl)-N-(quinolin-8-yl)azetidine-2-carboxamide] |
| 0 | 72 | 52.5 | 74 | 58 | C=CC(=O)N1C[C@H](c2ccc(Br)cc2)[C@@H]1C(=O)Nc1cccc2cccnc12 [MY-1B, (2R,3S)-1-acryloyl-3-(4-bromophenyl)-N-(quinolin-8-yl)azetidine-2-carboxamide] |
| 66.5 | 13.5 | 71 | 78.5 | 68.5 | C=CC(=O)N1C[C@H](c2ccc(Br)cc2)[C@H]1C(=O)Nc1cccc2cccnc12 [MY-3B, (2S,3S)-1-acryloyl-3-(4-bromophenyl)-N-(quinolin-8-yl)azetidine-2-carboxamide] |
| 32.5 | 28.5 | 43.5 | 55.5 | 60.5 | C=CC(=O)N1C[C@H](c2ccc(Br)cc2)[C@H]1C(=O)Nc1cccc2cccnc12 [MY-3A, (2S,3S)-1-acryloyl-3-(4-bromophenyl)-N-(quinolin-8-yl)azetidine-2-carboxamide] |
